“Also recorded” adds a separate entry of the source.
How the values were obtained:
[1] = test system: A-253 human head and neck squamous carcinoma cells; test: MTT microculture growth inhibition assay, A-253 cells; format: cell-based; settings: for IC50: cells exposed to drugs for 4 days, MTT, ± SEM of 16 or more determinations
Experimental: (§1) A-253 human head and neck squamous carcinoma cells were obtained from the American Type Culture Collection (Rockville, Md.) and were grown in McCoy's medium supplemented with 10% fetal bovine serum (Hyclone, Logan, Utah) as previously described. See, Lazo, J. S., et al., "Characteristics of Bleomycin-resistant Phenotypes of Human Cell Sublines and Circumvention of Bleomycin Resistance by Liblomycin," Cancer Res , 49: 185-190, (1989). The BLM-resistant (C-10E) cell line was derived from A-253 cells as previously described. Id., incorporated by reference herein, and was maintained in the continuous presence of 50 nM BLM. The revertant (C-10E^R) cells were obtained by growing C-10E cells in the absence of BLM for 3 months. Cell lines were maintained at 37° C. in a humidified incubator with 95% air, 5% CO2 atmosphere.
(§2) The effect of drugs on cellular proliferation was determined using the previously described MTT microculture assay. See, Twentyman, P. R., et al., "Study of Some Variables in a Tetrazolium Dye (MTT) Based Assay for Cell Growth and Chemosensitivity," Br. J Cancer, 56: 279-285, (1987). Exponentially growing cells were plated at a density of 2 to 4×10^3 cells per well in 100 μl volume into 96-well microtiter plates (Costar, Cambridge, Mass.). After 3 hours, various concentrations of drugs were added and the plates were incubated for 4 days at 37° C. under humidified 5% CO2 -95% air atmosphere. After 4 days, the medium was replaced with 100 μl of 1 mg/ml MTT in McCoy's medium, and cells were incubated with MTT solution in McCoy's medium for 3 hours at 37° C. Excess MTT was removed, the formazan generated was dissolved in 100 μl DMSO, and the absorbance at wavelength 540 nm was determined spectrophotometrically (Titertek Multiskan; Flow Labs, McLean, Va.). The drug concentrations required to inhibit cell growth by 50% (IC50) were then determined.

[2] = Fluorescent intensity and quantum yield in solution; format: physicochemical; settings: for relative fluorescent units: 1 μM solutions
Experimental: Absorption spectra were obtained using a Perkin-Elmer (Lambda 2) UV/VIS spectrophotometer. Fluorescence spectra were obtained by using either a Perkin-Elmer 650-10S fluorescent spectrophotometer or a SPEX Fluorolog 2. Proton NMR spectra were recorded with a Bruker 300 MHz pulsed fourier transform spectrometer. The chemical shifts were determined with respect to internal standards: tetramethylsilane or 4-trimethylsilylpropanesulfonic acid.

[3] = test system: C-10E cells; test: MTT microculture growth inhibition assay, BLM-resistant C-10E cells; format: cell-based, human; settings: for IC50: cells exposed to drugs for 4 days, MTT, ± SEM; for resistance index C-10E: ratio of IC50 for C-10E cells compared to the IC50 for A-253 cells; for fold resistance of C-10E cells: C-10E clone relative to A-253 cells
Experimental: as §1, §2

[4] = test system: C-10E^R cells; test: MTT microculture growth inhibition assay, revertant C-10E^R cells; format: cell-based, human; settings: for resistance index C-10E ®: ratio of IC50 for C-10E ® cells compared to the IC50 for A-253 cells; for IC50: revertant cells, exposed to drugs for 4 days, MTT, ± SEM
Experimental: as §1, §2

[5] = test system: form I plasmid pGEM-3Z DNA; test: DNA cleavage assay, agarose gel electrophoresis and densitometry; format: biochemical; settings: for form I DNA remaining after 1 minute incubation: equipotent concentrations: TLM S10b 0.05 μM, FLM 0.62 μM
Experimental: The ability of various drugs to cause breakage of covalently closed circular DNA was determined using a slight modification of a previously described DNA cleavage assay. See, Lazo, J. S., et al, "Enhanced Bleomycin-induced DNA Damage and Cytotoxicity with Calmodulin Antagonists," Molec. Pharmacol., 27: 387-393, (1985). Metal-free FLM was first made by chelating the metal with dithizone using a previously described procedure. See, Roy, S. R., et al., "Chemical Synthesis of Radiolabeled Bleomycin A2 and its Binding to DNA," Cancer Res., 41: 4471-4477, (1981), incorporated by reference herein. […] The disappearance of form I DNA and the appearance of form II and form III DNA were assayed by gel electrophoresis with 1.2% agarose gels at room temperature for 15 h at 30 V in a buffer containing 40 mM Tris-acetate and 1 mM EDTA. The gel was then stained with 1 μg/ml ethidium bromide for 1 hour and the DNA visualized by UV irradiation. A negative film of the gel was recorded and scanned using an LKB 2400 GelScan XL densitometer. The effect of incubation time on cleavage of pGEM-3Z DNA by TLM S10b and FLM was also determined using equipotent amounts of TLM S10b and FLM (0.05 and 0.62 μM, respectively) by gel electrophoresis as described above.
Equipotent concentrations of TLM S10b and FLM (0.05 and 0.62 μM, respectively) were incubated with form I DNA for 1, 5, 10, 20 and 30 minutes and the percent form I DNA remaining was calculated from densitometric scanning of the band corresponding to form I. Following incubation with FLM for 1 minute, only 6.5% form I DNA remained undegraded (lane 8). In contrast, 74% form I DNA remained intact following incubation with TLM S10b for 1 minute (lane 3) and 10 minutes incubation was required to cleave 95% of form I (lane 5).

[6] = test system: C-10E cells; test: Cell-associated drug by fluorescent spectrophotometry, C-10E cells; format: cell-based, human
Experimental: (§5) Exponentially growing A-253, C-10E or C-10E^R cells were harvested and approximately 1.5×10^6 cells were incubated in 200 µl medium at 37° C. for 60 minutes in the presence or absence of 100 μM FLM. Drug incubation was terminated by washing the cells with 3×1 ml of ice-cold PBS, resuspending the cells in 1 ml of 50 mM bicarbonate buffer (pH=9.0) and lysing by sonication (4×5 sec). The cell lysate was centrifuged at 12,000 rpm (Eppendorf Microcentrifuge 5415 C) to remove cellular debris, and the supernatant was filtered through 0.2 μm SPIN-X centrifuge filter unit (Costar, Cambridge, Mass.). The cell-associated fluorescent was measured using a fluorescent spectrophotometer. Autofluorescent associated with cells in the absence of drug treatment was measured and subtracted from the fluorescent value of the drug-treated group.
(§6) To quantify the levels of cell-associated FLM in A253, C-1OE and C-10E^R cell lines, cells were incubated with 100 μM FLM for 1 hour at 37° C. and the cellular fluorescent of the three cell lines were measured by fluorometry.

[7] = test system: C-10E cells; test: Flow cytometric analysis of cellular FLM content, C-10E cells; format: cell-based, human
Experimental: (§3) For each analysis, a "control" was included in which each cell line was incubated under identical conditions in the absence of FLM. […] Cells were then suspended in 100 μl PBS, fixed with 2% paraformaldehyde in 100 μl PBS and analyzed by flow cytometry using a Becton-Dickinson FAC Star. Analysis was done using a 2 W laser tuned in at 488 nm at an output strength of 200 mW. The band pass filter range =530/30. The total number of cells analyzed was 5,000.
(§4) The cell diameter as measured by Coulter counter was similar for all the three cell lines ([…]).

[8] = test system: A-253 cells; test: Cell-associated drug by fluorescent spectrophotometry, A-253 cells; settings: 1 hour, 37° C.
Experimental: as §5, §6

[9] = test system: C-10E^R cells; test: Flow cytometric analysis of cellular FLM content, C-10E^R cells; format: cell-based, human
Experimental: as §3, §4

[10] = test system: C-10E^R cells; test: Cell-associated drug by fluorescent spectrophotometry, C-10E^R cells; format: cell-based, human; settings: 100 μM FLM, 1 hour, 37° C., fluorometry
Experimental: as §5, §6

[11] = test system: A-253 cells; test: Flow cytometric analysis of cellular FLM content, A-253 cells; format: cell-based, human; settings: 100 μM FLM, 60 minutes, 37° C.
Experimental: as §3, §4

[12] = A-253 cells, continuous exposure

In the case of Cc1c(N)nc([C@H](CC(N)=O)NC[C@H](N)C(N)=O)nc1C(=O)N[C@H](C(=O)N[C@H](C)[C@@H](O)[C@H](C)C(=O)N[C@H](C(=O)NCCc1nc(-c2nc(C(=O)NCCCN(C)CCCN(Cc3ccc(OCc4ccccc4)c(OCc4ccccc4)c3)Cc3ccc(OCc4ccccc4)c(OCc4ccccc4)c3)cs2)cs1)[C@@H](C)O)[C@@H](O[C@@H]1O[C@@H](CO)[C@@H](O)[C@H](O)[C@@H]1O[C@H]1O[C@H](CO)[C@@H](O)[C@H](OC(N)=O)[C@@H]1O)c1cnc[nH]1 [LBM, liblomycin, reference compound], the IC50 [1] is reported as 500 ± 20 nM, the relative fluorescent units [2] is reported as 2.1 relative fluorescent units and the IC50 [3] is reported as 570 ± 20 nM. For the same compound, the “resistance index C-10E” value [3] was 1.1.

With Cc1c(N)nc([C@H](CC(N)=O)NC[C@H](N)C(N)=O)nc1C(=O)N[C@H](C(=O)N[C@H](C)[C@@H](O)CC(=O)N[C@H](C(=O)NC(O[C@@H]1O[C@@H](C)[C@@H](N)[C@@H](O)[C@H]1O)C(O)c1nc(-c2nc(C(=O)NCCCCN)cs2)cs1)[C@@H](C)O)[C@@H](O[C@@H]1O[C@@H](CO)[C@@H](O)[C@H](O)[C@@H]1O[C@H]1O[C@H](CO)[C@@H](O)[C@H](OC(N)=O)[C@@H]1O)c1cnc[nH]1 (stereo partly drawn) [TLM S10b, talisomycin S10b, reference compound] the IC50 [1] was 50 ± 2.3 nM, the “resistance index C-10E ®” value [4] was 8 and the IC50 [4] was 410 ± 9 nM. For the same compound, the “form I DNA remaining undegraded” value ([5]; 0.05 μM drug, 20 minutes, stoichiometric Fe(II)) was 21.1%, the “incubation required to cleave 95% of form I DNA” value ([5]; TLM S10b 0.05 μM) was 10 min and the “form I DNA remaining after 1 minute incubation” value [5] was 74%. The relative fluorescent units [2] was 2.6 relative fluorescent units, the “fold resistance of C-10E cells” value [3] was 40- to 50 fold and the IC50 [3] was 2700 ± 23 nM. The “resistance index C-10E” value [3] was 54.

In the case of fluoromycin [FLM], the “times less potent than BLM A2 (antiproliferative potency)” value [1, 12] is reported as 33 times, the “times less potent than TLM S10b (antiproliferative potency)” value [1, 12] is reported as 25 times and the IC50 [1] is reported as 1250 ± 80 nM. The “IC50 value times higher than TLM S10b or BLM A2” value ([1]; growth inhibition assay) was 25-30 times, the “resistance index C-10E ®” value [4] was 18 and the IC50 [4] was 22000 ± 1100 nM. The “form I DNA remaining after 1 minute incubation” value [5] was 6.5%, the “rate of DNA cleavage relative to TLM S10b” value ([5]; equipotent doses compared directly) was “approximately 10 times” and the “times less potent than TLM S10b in DNA cleavage” value ([5]; metal-free FLM, stoichiometric Fe(II), 20 minutes) was 12 times. For the same compound, the “cleavage of plasmid DNA in vitro” value ([5]; result in words) was “able to cleave form I DNA; also recorded: cleaves pGEM-3Z plasmid DNA in vitro in a concentration-dependent manner”, the “cell-associated FLM” value ([6]; C-10E cells, 100 μM FLM, 1 hour, 37° C., fluorometry) was 123 pmol/10^6 cells and the “fold difference in cell-associated FLM, C-10E lower than A-253 cells” value ([6]; fluorescent spectrophotometry) was 2 fold. The “mean fluorescent channel number (mean FL1)” value ([7]; C-10E cells, 100 μM FLM, 60 minutes, 37° C.) was 61, the “fold difference in fluorescent intensity, C-10E lower than A-253 cells” value ([7]; flow cytometry of FLM content) was 4 fold and the “fold difference in drug accumulation, FLM vs BLM A2” value ([8]; 50 μM) was roughly 2 fold. For the same compound, the “cell-associated FLM” value ([8]; 100 μM FLM, fluorometry) was 246 pmol/106 cells, the “cell-associated drug, comparison of BLM A2 and FLM” value ([8]; 100 μM drug) was 255 pmol/10^6 cells and the “cell-associated FLM fold higher than for BLM A2” value ([8]; 100 μM) was “approximately 2.5 fold”. The “mean fluorescent channel number (mean FL1)” value ([9]; C-10E^R cells, 100 μM FLM, 60 minutes, 37° C.) was 122, the “fold lower fluorescent intensity, C-10E^R compared to A-253 cells” value ([9]; flow cytometry of FLM content) was 2 fold and the “cell-associated FLM” value [10] was 167 pmol/10^6 cells. For the same compound, the relative fluorescent units [2] was 836 relative fluorescent units, the fluorescent quantum yield ([2]; 50 mM bicarbonate buffer (pH=9.0), excited at 497 nm, emission maximum 523 nm) was 0.71 and the “fluorescent intensity times greater than that of BLM A2, TLM S10b and LBM” value ([2]; equimolar solutions) was 300 to 400 times. The “mean fluorescent channel number (mean FL1)” value [11] was 250, the “fold resistance of C-10E cells” value [3] was 50 fold and the IC50 [3] was 66000 ± 1700 nM. For the same compound, the “resistance index C-10E” value [3] was 53.

From US5420228A, “Fluorescent-labelled bleomycin analogues” (University of Pittsburgh of the Commonwealth System of …, priority 1994, dated 1995)
